Experimental data taken from patent US8088758B2, “17β-hydroxysteroid dehydrogenase type I inhibitors” (Abbott Products GmbH, priority 2003, dated 2012).

Biological target: T1, recombinant human 17β-hydroxysteroid dehydrogenase type 1 (Homo sapiens, UniProt P14061)
T1 construct: made in house; host or cells: Sf9 insect cells (baculovirus, Bac to Bac Expression System)
T1 sequence (P14061 1-328): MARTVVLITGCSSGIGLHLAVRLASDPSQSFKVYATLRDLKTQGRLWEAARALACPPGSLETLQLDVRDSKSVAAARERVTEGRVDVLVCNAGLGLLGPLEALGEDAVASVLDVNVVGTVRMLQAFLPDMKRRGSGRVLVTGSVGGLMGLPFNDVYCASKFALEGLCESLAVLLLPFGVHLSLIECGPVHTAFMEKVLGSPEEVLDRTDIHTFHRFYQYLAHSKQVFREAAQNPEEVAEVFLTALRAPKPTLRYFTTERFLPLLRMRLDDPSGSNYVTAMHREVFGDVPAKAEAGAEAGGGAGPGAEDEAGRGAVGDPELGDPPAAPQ
Assay: Inhibition of recombinant human 17β-hydroxysteroid dehydrogenase type 1 (conversion of 3H-estrone to estradiol, HPLC)
Type: biochemical
Conditions: 30 nM 3H-estrone, 1 mM NADPH, 30 min at RT; for inhibition at 0.1 µM: inhibitor 100 nM, read-out: Inhibition of rec. 17β-HSD1 (% inhibition), 100 nM; for inhibition at 1 µM: inhibitor 1 μm, read-out: Inhibition of rec. 17β-HSD1 (% inhibition), 1 μm
Method: 1. Inhibition of the 17β-hydroxysteroid Dehydrogenase Type 1 Enzyme
17β-HSD1 Purification: Recombinant baculovirus was generated by the “Bac to Bac Expression System” (Invitrogen). Recombinant bacmid was transfected to Sf9 insect cells using “Cellfectin Reagent” (Invitrogen). 60 h later cells were harvested; the microsomal fraction was isolated as described by Puranen et al. 1994. Aliquots were stored frozen until determination of enzymatic activity.
Assay—Inhibition of Recombinant Human 17β-hydroxysteroid Dehydrogenase Type 1:
Recombinant protein (0.1 μg/ml) was incubated in 20 mM KH2PO4 pH 7.4 with 30 nM 3H-estrone and 1 mM NADPH for 30 min at RT, in the presence of potential inhibitors at concentrations of 1 μM or 0.1 μM. Inhibitor stock solutions were prepared in DMSO. Final concentration of DMSO was adjusted to 1% in all samples. The enzyme reaction was stopped by addition of 10% trichloroacetic acid (final concentration). Samples were centrifuged in a microtiter plate at 4000 rpm for 10 min. Supernatants were applied to reverse phase HPLC on a Waters Symmetry C18 column, equipped with a Waters Sentry Guard column. Isocratic HPLC runs were performed at RT at a flow rate of 1 ml/min of acetonitrile:water 48:52 as running solvent. Radioactivity was monitored in the eluate by a Packard Flow Scintillation Analyzer. Total radioactivity for estrone and estradiol were determined in each sample and percent conversion of estrone to estradiol was calculated according to the following formula:
Percent inhibition was calculated as follows: % inhibition=100−% conversion

| Structure (SMILES) | inhibition at 0.1 µM [%] | inhibition at 1 µM [%] |
| --- | --- | --- |
| COc1ccc2c(c1)CC[C@H]1[C@@H]3[C@H](CCCCOC(=O)Nc4cccc([N+](=O)[O-])c4)CC(=O)[C@@]3(C)CC[C@H]21 [Example 754] | 29.3 | 65.1 |
| COc1ccc2c(c1)CC[C@H]1[C@@H]3[C@H](CCCC(=O)NCc4ccccc4)CC(=O)[C@@]3(C)CC[C@H]21 [Example 3B, N-Benzyl-4-(3-methoxy-17-oxo-estra-1,3,5(10)-trien-15β-yl)-butyramide] | 77.4 | 82.1 |
| COc1ccc2c(c1)CC[C@H]1[C@@H]3[C@H](CCCCCC(=O)NCc4cccnc4)CC(=O)[C@@]3(C)CC[C@H]21 [Example 356] | 26.9 | 83.9 |
| COc1ccc2c(c1)CC[C@H]1[C@@H]3[C@H](CCCCNC(=O)Nc4ccc(OC)c(OC)c4)CC(=O)[C@@]3(C)CC[C@H]21 [Example 488] | 60.3 | 91.6 |
| COc1ccc2c(c1)CC[C@H]1[C@@H]3[C@H](CCC(=O)NCCc4ccc(O)cc4)CC(=O)[C@@]3(C)CC[C@H]21 [Example 324] | 57.9 | 91.5 |
| C[C@]12CC[C@@H]3c4ccc(O)cc4CC[C@H]3[C@@H]1[C@@H](CCCC(=O)NCc1ccccc1)CC2=O [Example 39, N-Benzyl-4-(3-hydroxy-17-oxo-estra-1,3,5(10)-trien-15α-yl)-butyramide] | 41.8 | 82.4 |
| COc1ccc2c(c1)CC[C@H]1[C@@H]3[C@H](CCCCCC(=O)N4CCOCC4)CC(=O)[C@@]3(C)CC[C@H]21 [Example 354] | 28.7 | 80.3 |
| CN(C[C@H]1CC(=O)[C@@]2(C)CC[C@@H]3c4ccc(O)cc4CC[C@H]3[C@H]12)S(=O)(=O)c1cccc(Cl)c1 [Example 693] | 25.8 | 80.1 |
| COc1ccc2c(c1)CC[C@H]1[C@@H]3[C@H](CCC(=O)NCc4ccc5c(c4)OCO5)CC(=O)[C@@]3(C)CC[C@H]21 [Example 315] | 29 | 74.4 |
| COc1ccc2c(c1)CC[C@H]1[C@@H]3[C@H](CCCNC(=O)Nc4ccc5ccccc5c4)CC(=O)[C@@]3(C)CC[C@H]21 [Example 460] | 50.1 | 77.2 |
| COc1ccc2c(c1)CC[C@H]1[C@@H]3[C@H](CCCNC(=O)NC(C)C)CC(=O)[C@@]3(C)CC[C@H]21 [Example 449] | 26 | 82.7 |
| C[C@]12CC[C@@H]3c4ccc(O)cc4CC[C@H]3[C@@H]1[C@@H](CNS(=O)(=O)c1ccc3ccccc3c1)CC2=O [Example 661] | 40.1 | 82 |
| COc1ccc2c(c1)CC[C@H]1[C@@H]3[C@H](CCCCCC(=O)NCc4cccc(F)c4)CC(=O)[C@@]3(C)CC[C@H]21 [Example 361] | 35.8 | 84.2 |
| CNC(=O)CCC[C@@H]1CC(=O)[C@@]2(C)CC[C@@H]3c4ccc(OC)cc4CC[C@H]3[C@H]12 [Example 4B, 4-(3-Methoxy-17-oxo-estra-1,3,5(10)-trien-15β-yl)-N-methyl-butyramide] | 30.5 | 60.8 |
| COc1ccc2c(c1)CC[C@H]1[C@@H]3[C@H](CCC(=O)NCc4ccc(Cl)cc4)CC(=O)[C@@]3(C)CC[C@H]21 [Example 323] | 28.5 | 72.7 |
| C[C@]12CC[C@@H]3c4ccc(O)cc4CC[C@H]3[C@@H]1[C@@H](CNS(=O)(=O)c1cccs1)CC2=O [Example 662] | 76.9 | 94.8 |
| COc1ccc(S(=O)(=O)N(C)C[C@H]2CC(=O)[C@@]3(C)CC[C@@H]4c5ccc(O)cc5CC[C@H]4[C@H]23)cc1 [Example 688] | 47.4 | 91.3 |
| Cc1cccc2c(CCNC(=O)CCC[C@@H]3CC(=O)[C@@]4(C)CC[C@@H]5c6ccc(O)cc6CC[C@H]5[C@H]34)c[nH]c12 [Example 36, 4-(3-Hydroxy-17-oxo-estra-1,3,5(10)-trien-15β-yl)-N-[2-(7-methyl-1H-indol-3-yl)-ethyl]-butyramide] | 72.9 | 94.3 |

| Structure (SMILES) | inhibition at 0.1 µM [%] | inhibition at 1 µM [%] |
| --- | --- | --- |
| CN(C[C@H]1CC(=O)[C@@]2(C)CC[C@@H]3c4ccc(O)cc4CC[C@H]3[C@H]12)S(=O)(=O)c1cccs1 [Example 682] | 49.2 | 91.8 |
| C[C@]12CC[C@@H]3c4ccc(O)cc4CC[C@H]3[C@@H]1[C@H](CCCC(=O)N1CCOCC1)CC2=O [Example 1, 3-Hydroxy-15β-(4-morpholin-4-yl-4-oxo-butyl)-estra-1,3,5(10)-trien-17-one] | 49.9 | 80.2 |
| COc1ccc2c(c1)CC[C@H]1[C@@H]3[C@H](CCCCC(=O)NCc4ccccc4)CC(=O)[C@@]3(C)CC[C@H]21 [Example 340] | 51.4 | 91.9 |
| COc1ccc2c(c1)CC[C@H]1[C@@H]3[C@H](CCCCC(=O)NCc4ccccc4OC)CC(=O)[C@@]3(C)CC[C@H]21 [Example 341] | 38.1 | 88 |
| COc1ccc2c(c1)CCC1C2CC[C@]2(C)C(=O)C[C@H](C(=O)NCc3nc4ccccc4[nH]3)C12 (stereo partly drawn) [Example 58] | 25 | 65.3 |
| COc1ccc2c(c1)CC[C@H]1[C@@H]3[C@H](CCCCCC(=O)NCc4ccncc4)CC(=O)[C@@]3(C)CC[C@H]21 [Example 357] | 31.1 | 85.2 |
| CN(C[C@H]1CC(=O)[C@@]2(C)CC[C@@H]3c4ccc(O)cc4CC[C@H]3[C@H]12)S(=O)(=O)c1ccc2ccccc2c1 [Example 681] | 39.7 | 87.1 |
| COc1ccc2c(c1)CCC1C2CC[C@]2(C)C(=O)C[C@H](C(=O)N(C)Cc3cccc4ccccc34)C12 (stereo partly drawn) [Example 152] | 25.6 | 41.4 |
| COc1ccc(S(=O)(=O)NC[C@H]2CC(=O)[C@@]3(C)CC[C@@H]4c5ccc(O)cc5CC[C@H]4[C@H]23)cc1 [Example 668] | 52.4 | 88.3 |
| COc1ccc2c(c1)CC[C@H]1[C@@H]3[C@H](CCCNC(=O)Nc4cccc5ccccc45)CC(=O)[C@@]3(C)CC[C@H]21 [Example 451] | 32.3 | 74.6 |
| CCOC(=O)CNNC(=O)CCCCC[C@@H]1CC(=O)[C@@]2(C)CC[C@@H]3c4ccc(OC)cc4CC[C@H]3[C@H]12 [Example 414] | 44.9 | 49.9 |
| COc1ccc2c(c1)CC[C@H]1[C@@H]3[C@H](CCCCC(=O)NCc4ccco4)CC(=O)[C@@]3(C)CC[C@H]21 [Example 333] | 47.9 | 91 |
| CCCCNC(=O)CCCCC[C@@H]1CC(=O)[C@@]2(C)CC[C@@H]3c4ccc(OC)cc4CC[C@H]3[C@H]12 [Example 365] | 33.7 | 86.4 |
| COc1ccc2c(c1)CCC1C2CC[C@]2(C)C(=O)C[C@@H](CCCC(=O)NCCc3ccc(O)cc3)C12 (stereo partly drawn) [Example 22] | 27.3 | 57.8 |
| Cc1cccc(S(=O)(=O)NC[C@H]2CC(=O)[C@@]3(C)CC[C@@H]4c5ccc(O)cc5CC[C@H]4[C@H]23)c1 [Example 677] | 36.9 | 83.7 |
| CCOC(=O)Cc1csc(NC(=O)CC[C@@H]2CC(=O)[C@@]3(C)CC[C@@H]4c5ccc(OC)cc5CC[C@H]4[C@H]23)n1 [Example 314] | 33.6 | 62.1 |
| COc1ccc2c(c1)CC[C@H]1[C@@H]3[C@H](CCCCCC(=O)NCCc4cccs4)CC(=O)[C@@]3(C)CC[C@H]21 [Example 366] | 56.3 | 94.4 |
| Cc1cccc(S(=O)(=O)N(C)C[C@H]2CC(=O)[C@@]3(C)CC[C@@H]4c5ccc(O)cc5CC[C@H]4[C@H]23)c1 [Example 694] | 34.6 | 87.3 |
